Data published in patent US5444042A, “Method of treatment of neurodegeneration with calpain inhibitors” (Cortex Pharmaceuticals, priority 1994, dated 1995).
Each block holds one compound with its values, some of them ahead of it. Where a SMILES comes first, the peptide text is derived from it.

Legend:
[1] = target: T1, Calpain II (Homo sapiens, UniProt P17655); test: Calpain II 14C-methylated casein proteolysis (Table 1A); format: biochemical
T1 construct: from tissue; purified by a cited method
T1 sequence (P17655 1-700): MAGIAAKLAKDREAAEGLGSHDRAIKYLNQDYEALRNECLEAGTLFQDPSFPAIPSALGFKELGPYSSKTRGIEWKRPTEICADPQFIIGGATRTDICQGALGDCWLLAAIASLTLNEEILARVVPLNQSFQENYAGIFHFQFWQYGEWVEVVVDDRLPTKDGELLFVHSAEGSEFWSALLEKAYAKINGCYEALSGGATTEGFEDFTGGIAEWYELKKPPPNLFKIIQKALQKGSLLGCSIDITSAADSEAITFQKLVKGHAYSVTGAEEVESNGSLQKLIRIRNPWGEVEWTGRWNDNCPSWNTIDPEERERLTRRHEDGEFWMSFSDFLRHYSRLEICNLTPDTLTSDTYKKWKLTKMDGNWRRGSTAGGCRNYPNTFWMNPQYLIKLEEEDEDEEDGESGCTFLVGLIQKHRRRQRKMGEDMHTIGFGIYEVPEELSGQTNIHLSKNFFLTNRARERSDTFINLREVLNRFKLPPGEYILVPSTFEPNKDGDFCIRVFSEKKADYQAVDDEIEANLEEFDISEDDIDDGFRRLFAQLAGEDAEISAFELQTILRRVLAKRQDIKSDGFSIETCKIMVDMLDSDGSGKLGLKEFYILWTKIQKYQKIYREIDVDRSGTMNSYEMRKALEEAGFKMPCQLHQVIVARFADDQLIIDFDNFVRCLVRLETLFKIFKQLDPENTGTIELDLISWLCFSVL
T1 sequence (P04632 1-268 partner): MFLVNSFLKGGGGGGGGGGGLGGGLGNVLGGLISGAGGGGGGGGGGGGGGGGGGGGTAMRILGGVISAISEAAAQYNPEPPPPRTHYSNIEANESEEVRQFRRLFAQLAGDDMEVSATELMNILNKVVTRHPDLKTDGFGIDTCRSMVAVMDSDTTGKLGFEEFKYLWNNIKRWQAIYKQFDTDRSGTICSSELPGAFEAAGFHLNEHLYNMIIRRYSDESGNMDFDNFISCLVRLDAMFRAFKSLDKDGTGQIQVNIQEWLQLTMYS
Description: (§1) The isocoumarins are irreversible inhibitors of Calpain. We obtained IC50 values for a variety of these Calpain Inhibitors as a kinetic analysis of these compounds.
(§2) Calpains I and II were purified by the method of (Yoshimura, et al. 1983). (Kitahara 1984) provides an alternative purification scheme. Calpain II may alternatively be purchased from Sigma Chemical Co. as "Calcium Activated Neutral Protease." In this assay, purified Calpain was incubated with ^14 C-methylated casein in the presence of various Heterocyclic Compounds and the amount of acid-soluble radioactivity released by the action of Calpain was measured.

[2] = target: T2, Calpain I (Homo sapiens, UniProt P07384); test: Calpain I 14C-methylated casein proteolysis (Table 1A); format: biochemical
T2 sequence (P07384 1-714): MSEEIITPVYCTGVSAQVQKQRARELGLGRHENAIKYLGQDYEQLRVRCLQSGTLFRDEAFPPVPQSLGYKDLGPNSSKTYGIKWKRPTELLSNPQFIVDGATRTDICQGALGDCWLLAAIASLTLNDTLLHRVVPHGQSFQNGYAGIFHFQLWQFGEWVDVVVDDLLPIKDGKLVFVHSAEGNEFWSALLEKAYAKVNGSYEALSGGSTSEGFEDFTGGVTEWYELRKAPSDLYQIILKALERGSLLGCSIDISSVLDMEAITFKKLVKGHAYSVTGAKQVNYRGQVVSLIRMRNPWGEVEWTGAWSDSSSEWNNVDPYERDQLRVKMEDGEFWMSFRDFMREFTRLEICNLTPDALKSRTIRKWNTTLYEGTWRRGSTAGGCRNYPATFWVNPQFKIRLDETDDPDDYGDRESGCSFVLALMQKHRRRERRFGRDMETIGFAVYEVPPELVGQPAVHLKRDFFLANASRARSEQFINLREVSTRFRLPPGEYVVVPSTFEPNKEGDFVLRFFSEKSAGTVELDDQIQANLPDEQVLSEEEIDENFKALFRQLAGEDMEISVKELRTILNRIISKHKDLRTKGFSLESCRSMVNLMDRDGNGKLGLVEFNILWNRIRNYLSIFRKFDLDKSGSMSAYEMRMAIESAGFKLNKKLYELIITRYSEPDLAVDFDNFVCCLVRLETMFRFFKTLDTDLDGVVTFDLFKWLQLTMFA
T2 sequence (P04632 1-268 partner): T1 sequence (P04632 1-268 partner)
Description: as §1, §2

[3] = test system: Calpain in crude brain extracts; test: Ca2+-stimulated spectrin proteolysis in crude brain extracts (Example 2); format: biochemical; settings: 100 μM
Summary of the method: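 Brain tissue was homogenized in 10 mM Tris pH 7.4, 0.32 M sucrose, 1 mM EGTA and 1 mM DTT, and nuclei and debris were removed. Calpain activity was scored as Ca^2+-stimulated proteolysis of endogenous spectrin.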

[4] = test system: Calpain within platelets; test: Platelet membrane permeation assay, spectrin proteolysis (Examples 4A, 4B); format: cell-based, rat; settings: for inhibition of Calpain within platelets: 100 μM, A23187 1 μM; for IC50: concentration at which 50% of the Calpain activation present in controls occurred
Summary of the method: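 Rat (Sprague-Dawley) platelets at 10^7 cells/ml in HEPES buffer pH 7.4, preincubated 5 min with inhibitor, then 5 min with 1 μM A23187 to activate calpain. Spectrin proteolysis assessed by SDS-PAGE and anti-spectrin immunoblot, quantified by densitometry.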

[5] = test system: Calpain; test: Kapp/[I] of other irreversible Calpain Inhibitors; format: biochemical
Description: The kinetic constants of other irreversible Calpain Inhibitors include the following with Kapp /[I] in parentheses: E-64 (7500), E64-d (23000) and Z-leu-leu-tyr-CHN2 (230000). E-64 is commercially available from Sigma Chemical Co., and is shown here to be a poor inhibitor of Calpain.

[6] = target: T3, Calpain I from human erythrocytes (Homo sapiens, UniProt P07384); test: Calpain I Ki (Table 1B(i)); format: biochemical; settings: Suc-Leu-Tyr-amidomethylcoumarin, HEPES pH 7.2
T3 construct: Calpain I from human erythrocytes and calpain II from rabbit were assayed using Suc-Leu-Tyr-AMC; from tissue; host or cells: human erythrocytes
T3 sequence (P07384 1-714): T2 sequence (P07384 1-714)
T3 sequence (P04632 1-268 partner): T1 sequence (P04632 1-268 partner)
Description: The Peptide Keto-Compounds are reversible inhibitors of Calpains and other thiol proteases. […] Cathepsin B from bovine spleen was assayed using Z-Lys-4-nitrophenylphosphate as substrate.
The Ki value for the inhibition of Calpains and cathepsin B by several Peptide Keto-Compounds are shown in μM (micromolar). The values for leupeptin, which is commercially available from Calbiochem of La Jolla, Calif., are shown for comparison.

[7] = target: Chym (Bos taurus, UniProt P00766); test: Chym KI (Table 1B(ii)); format: biochemical
Description: (§3) We tested the ability of an additional group of Peptide Keto-Compounds to inhibit several proteases in order to evaluate their specificity for Calpain.

[8] = target: Cathepsin B (Bos taurus, UniProt P07688); test: Cathepsin B KI (Table 1B(ii)); format: biochemical; settings: read-out: KI CathB
Description: as §3

[9] = test system: rats with middle cerebral artery occlusion; test: MCA occlusion model (Example 6); format: in vivo, rat; settings: infusion into femoral vein by 24 hr minipump; 24 hours after occlusion (FIG. 2)
Description: Male Sprague-Dawley albino rats weighing approximately 250-300 grams were anesthetized with pentobarbital (70 mg/kg, i.p.). The neck region was shaven and a 2 cm incision was made. The superficial fascia was teased away with tissue forceps and blunt tip tissue scissors using a spread method. The right common carotid artery was isolated away from the vagus nerve and tied off with a single suture (3.0 silk). The external carotid was permanently occluded by suturing. The bifurcation of the internal carotid and pterygopalatine arteries was exposed and a single microaneurysm clip was placed on the pterygopalatine. Another microaneurysm clip was placed on the common carotid just proximal to the external/internal bifurcation. A suture was placed loosely around the common carotid and a lumen was made in the vessel with the tip of a 25 g needle. A 40 mm nylon suture was prepared by melting the tip to smooth the pointed end and marked with a dot exactly 17.5 mm from the melted end. […]
Twenty-four hours after occlusion, the brains of these animals were removed and sliced into 2 mm sections. […] The sizes of the infarcted tissue zone ([…]) and impaired zone (area with partial development of red color) were evaluated using quantitative morphometry. […]

[10] = target: PP Elastase (Sus scrofa, UniProt P00772); test: PP Elastase KI (Table 1B(ii)); format: biochemical
Description: as §3

[11] = target: T2, Calpain I; test: Calpain I KI (Table 1B(ii)); format: biochemical; settings: for Ki: Table 1B(ii)
Description: as §3

[12] = Stability in liver homogenates; format: in vitro ADME; settings: unit assumed
Description: (§4) We determined the haft-life of several Peptide Keto-Compounds in both plasma and liver homogenates.

[13] = Stability in plasma; format: in vitro ADME; settings: unit assumed
Description: as §4

[14] = target: Calpain II; test: Calpain II KI (Table 1B(ii)); format: biochemical
Description: as §3

[15] = test system: hippocampal slices; test: Hippocampal slice EPSP recovery from severe hypoxia (FIG. 5); format: cell-based, rat; settings: one hour incubation
Description: These studies were performed in a manner similar to that of Example 7B, except using a hypoxic environment in place of the anoxia of Example 7B. […] The control slices experienced little or no recovery.

Sequence of PP Elastase (P00772 27-266): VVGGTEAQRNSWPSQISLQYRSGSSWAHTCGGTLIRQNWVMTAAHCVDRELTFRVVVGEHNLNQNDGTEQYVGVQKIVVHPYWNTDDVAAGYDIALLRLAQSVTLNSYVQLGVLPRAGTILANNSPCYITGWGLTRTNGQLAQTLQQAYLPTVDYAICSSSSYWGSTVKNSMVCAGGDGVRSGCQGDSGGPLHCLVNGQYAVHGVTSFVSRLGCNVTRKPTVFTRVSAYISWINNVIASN

IC50 [1]: > 200 µM
IC50 Calpain I [2]: no inhibition
SMILES: CC(C)(C)OC(=O)N[C@@H](Cc1ccccc1)C(=O)Nc1ccc2c(Cl)c(OCCCSC(=N)N)oc(=O)c2c1 [BOC-L-Phe-NH-CiTPrOIC, 7-(N-t-butyloxycarbonyl-L-phenylalanylamino)-4-chloro-3-(3-isothiureidopropoxy)isocoumarin]

IC50 [1]: 80 µM
IC50 [2]: 700 µM
SMILES: CC(=O)Nc1ccc2c(Cl)c(OCCCSC(=N)N)oc(=O)c2c1 [CH3 CONH-CiTPrOIC, 7-(acetylamino)-4-chloro-3-(3-isothiureidopropoxy)isocoumarin]
inhibition of spectrin proteolysis in crude brain extracts [3]: significant inhibition
inhibition of Calpain within platelets [4]: significant inhibition

SMILES: CCOC(=O)[C@H]1O[C@@H]1C(=O)N[C@@H](CC(C)C)C(=O)NCCC(C)C [Example E64-d, Loxastatin]
Kapp/[I] Calpain [5]: 23000

SMILES: CC(C)C[C@H](NC(=O)[C@H]1O[C@@H]1C(=O)O)C(=O)NCCCCN=C(N)N [Example E-64, E-64, reference compound]
Kapp/[I] Calpain [5]: 7500
effect on intracellular (platelet) Calpain ([4]; concentration not given): little effect

IC50 [1]: 30 µM
IC50 [2]: 80 µM
SMILES: N=C(N)SCCCOc1oc(=O)c2cc(NC(=O)NCc3ccccc3)ccc2c1Cl [PhCH2 NHCONH-CiTPrOIC, 7-(benzylcarbamoylamino)-4-chloro-3-(3-isothiureidopropoxy)isocoumarin]
inhibition of spectrin proteolysis in crude brain extracts [3]: significant inhibition
inhibition of Calpain within platelets [4]: significant inhibition

Ki [6]: 200 µM
SMILES: COC(=O)C(=O)C(C)NC(=O)C(C)NC(=O)C(C)NC(=O)OCc1ccccc1 (stereo not drawn) [Z-Ala-Ala-Ala-CO2 Me]

Ki [7]: > 150 µM
Ki [8]: 2.4 µM
Ki [10]: 65 µM
Ki [11]: 0.5 µM
better inhibitor of calpain I than Z-Leu-Phe-CONH-Et ([11]; ratio of KI values): 14 fold
IC50 [4]: 1.5 µM
t1/2 liver [12]: > 1 h
t1/2 plasma [13]: > 1 h
Ki [14]: 0.23 µM
SMILES: CCNC(=O)C(=O)[C@H](CC)NC(=O)[C@H](CC(C)C)NC(=O)OCc1ccccc1 [Z-Leu-Abu-CONHEt, Z-Leu-Abu-CONH-Et]
size of infarcted area [9]: reduction in the size of the infarcted area

Ki [7]: 73 µM
Ki [8]: 6 µM
Ki [10]: > 150 µM
Ki [11]: 7 µM
IC50 [4]: 1.7 µM
t1/2 liver [12]: > 1 h
t1/2 plasma [13]: > 1 h
Ki [14]: 0.32 µM
SMILES: CCNC(=O)C(=O)[C@H](Cc1ccccc1)NC(=O)[C@H](CC(C)C)NC(=O)OCc1ccccc1 [Z-Leu-Phe-CONHEt, Z-Leu-Phe-CONH-Et]
percent recovery of EPSP from severe hypoxia (FIG. 5) [15]: ~100%
size of infarcted area [9]: reduction in the size of the infarcted area

SMILES: CC(C)C[C@H](NC(=O)OCc1ccccc1)C(=O)N[C@@H](CC(C)C)C(=O)N[C@@H](Cc1ccc(O)cc1)C(=O)C=[N+]=[N-] [Z-leu-leu-tyr-CHN2] (HELM PEPTIDE1{[O=C(OCc1ccccc1)[*:2]].L.L.Y.[[N-]=[N+]=C[*:1]]}$$$$V2.0)
Kapp/[I] Calpain [5]: 230000
